Where no end group is shown, it is not given here.
Test system: intracellular Ca ion concentration
Test: Biological activity assay: intracellular Ca ion concentration-increasing activity (method of Example 3 of WO 99/33976)
Format: cell-based
Conditions: compared with a sample purified from human placenta extract

Q: Which “intracellular Ca ion concentration-increasing activity” value does the source give for “KiSS-1 peptide: Human KiSS-1 peptide (SEQ ID NO: 1) obtained in Example 2 by S-cyanylation and ammonolysis of a fused protein expressed in E. coli (GTSLSPPPESSGSRQQPGLSAPHSRQIPAPQGAVLVQREKDLPNYNWNSFGLRF-NH2)” here?
A: equivalent to that of a sample purified from human placenta extract

Reference: patent publication US20050176091A1, “Process for producing kiss-1 peptide” (priority 2002, published 2005)
